Results: the kinase profiling compilation of Christmann-Franck et al. (2016)
Values belong to the compound of their own block, whether it stands above or below them.

Experiments:
Test in all cases: radiometric filter-binding kinase assay
[1] = test system: AKT1 (human), P31749 [S473D]
AURKB (human) = AURKB (human) (UniProt Q96GD4)
CDK2 CCNA2 (human) = CDK2 CCNA2 (human) (UniProt P20248+P24941)
CHEK1 (human) = CHEK1 (human) (UniProt O14757)
CHEK2 (human) = CHEK2 (human) (UniProt O96017)
CSK (human) = CSK (human) (UniProt P41240)
CaMK1 (human) = CaMK1 (human) (UniProt Q14012)
DYRK3 (human) = DYRK3 (human) (UniProt O43781)
EPHA2 (human) = EPHA2 (human) (UniProt P29317)
EPHB3 (human) = EPHB3 (human) (UniProt P54753)
IKBKB (human) = IKBKB (human) (UniProt O14920)
LCK (mouse) = conditions: accession and sequence are those of the human protein
MAPK8 (human) = MAPK8 (human) (UniProt P45983)
MST4 (human) = MST4 (human) (UniProt Q9P289)
MYLK (human) = MYLK (human) (UniProt Q15746)
PAK4 (human) = PAK4 (human) (UniProt O96013)
PAK6 (human) = PAK6 (human) (UniProt Q9NQU5)
PKN2 (human) = PKN2 (human) (UniProt Q16513)
ROCK2 (rat) = conditions: accession and sequence are those of the human protein
RPS6KA3 KD1 KD2 (human) = RPS6KA3 KD1 KD2 (human) (UniProt P51812)
SRC (human) = SRC (human) (UniProt P12931)
TBK1 (human) = TBK1 (human) (UniProt Q9UHD2)
MAP2K1 (human) = MAP2K1 (human) (UniProt Q02750)
MAPK10 (human) = MAPK10 (human) (UniProt P53779)

Chain of AURKB (human) (Q96GD4 whole entry, looked up): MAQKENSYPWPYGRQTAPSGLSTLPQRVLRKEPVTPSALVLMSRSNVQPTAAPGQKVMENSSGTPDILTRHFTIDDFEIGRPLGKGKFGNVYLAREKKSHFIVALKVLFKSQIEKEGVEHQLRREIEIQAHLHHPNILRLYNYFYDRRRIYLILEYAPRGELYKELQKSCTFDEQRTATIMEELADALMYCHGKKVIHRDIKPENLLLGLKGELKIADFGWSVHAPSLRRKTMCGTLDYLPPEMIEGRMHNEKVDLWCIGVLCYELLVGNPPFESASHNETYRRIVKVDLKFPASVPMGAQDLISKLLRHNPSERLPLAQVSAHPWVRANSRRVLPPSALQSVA
Chain of CHEK1 (human) (O14757 whole entry, looked up): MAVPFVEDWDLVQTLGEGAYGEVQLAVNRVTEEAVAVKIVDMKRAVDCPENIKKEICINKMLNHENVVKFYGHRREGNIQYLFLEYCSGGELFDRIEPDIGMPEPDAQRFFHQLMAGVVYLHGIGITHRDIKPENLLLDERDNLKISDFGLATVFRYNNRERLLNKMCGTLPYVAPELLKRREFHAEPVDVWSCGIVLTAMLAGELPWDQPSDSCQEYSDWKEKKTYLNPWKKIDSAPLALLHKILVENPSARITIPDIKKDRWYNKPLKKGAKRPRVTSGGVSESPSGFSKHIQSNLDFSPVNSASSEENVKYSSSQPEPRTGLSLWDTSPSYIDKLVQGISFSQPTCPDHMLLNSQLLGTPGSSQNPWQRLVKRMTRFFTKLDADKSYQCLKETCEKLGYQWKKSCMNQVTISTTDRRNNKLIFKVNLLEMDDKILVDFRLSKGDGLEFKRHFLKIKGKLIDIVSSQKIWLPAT
Chain of SRC (human) (P12931 whole entry, looked up): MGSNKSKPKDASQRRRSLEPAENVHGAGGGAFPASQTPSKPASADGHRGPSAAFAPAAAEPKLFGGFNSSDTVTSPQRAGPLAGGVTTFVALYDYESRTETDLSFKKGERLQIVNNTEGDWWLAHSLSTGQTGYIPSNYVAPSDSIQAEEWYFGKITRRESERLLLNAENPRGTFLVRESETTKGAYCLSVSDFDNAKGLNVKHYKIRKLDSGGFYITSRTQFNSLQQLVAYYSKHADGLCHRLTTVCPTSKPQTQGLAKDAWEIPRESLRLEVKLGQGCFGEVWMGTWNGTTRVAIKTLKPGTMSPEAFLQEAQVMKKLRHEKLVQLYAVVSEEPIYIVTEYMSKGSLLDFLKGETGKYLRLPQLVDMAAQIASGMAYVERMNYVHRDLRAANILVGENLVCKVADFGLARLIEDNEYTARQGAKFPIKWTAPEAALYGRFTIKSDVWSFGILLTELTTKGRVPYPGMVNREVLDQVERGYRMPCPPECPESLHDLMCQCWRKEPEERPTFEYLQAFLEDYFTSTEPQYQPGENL
Chain of CHEK2 (human) (O96017 whole entry, looked up): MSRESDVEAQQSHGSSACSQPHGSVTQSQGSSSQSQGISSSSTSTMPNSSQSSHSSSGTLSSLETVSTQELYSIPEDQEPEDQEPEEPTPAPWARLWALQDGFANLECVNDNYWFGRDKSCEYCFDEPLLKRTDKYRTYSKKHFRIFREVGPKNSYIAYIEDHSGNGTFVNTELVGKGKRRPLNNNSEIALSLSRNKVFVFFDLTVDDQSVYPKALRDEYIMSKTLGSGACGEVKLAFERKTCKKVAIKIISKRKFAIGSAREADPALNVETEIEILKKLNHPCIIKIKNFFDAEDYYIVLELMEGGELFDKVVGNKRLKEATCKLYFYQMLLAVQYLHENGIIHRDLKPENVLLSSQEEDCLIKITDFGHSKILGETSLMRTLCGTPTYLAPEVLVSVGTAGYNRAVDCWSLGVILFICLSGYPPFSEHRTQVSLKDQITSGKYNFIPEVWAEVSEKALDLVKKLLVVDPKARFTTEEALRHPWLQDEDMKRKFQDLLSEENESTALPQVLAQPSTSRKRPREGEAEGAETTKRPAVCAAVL
Chain of MAPK8 (human) (P45983 whole entry, looked up): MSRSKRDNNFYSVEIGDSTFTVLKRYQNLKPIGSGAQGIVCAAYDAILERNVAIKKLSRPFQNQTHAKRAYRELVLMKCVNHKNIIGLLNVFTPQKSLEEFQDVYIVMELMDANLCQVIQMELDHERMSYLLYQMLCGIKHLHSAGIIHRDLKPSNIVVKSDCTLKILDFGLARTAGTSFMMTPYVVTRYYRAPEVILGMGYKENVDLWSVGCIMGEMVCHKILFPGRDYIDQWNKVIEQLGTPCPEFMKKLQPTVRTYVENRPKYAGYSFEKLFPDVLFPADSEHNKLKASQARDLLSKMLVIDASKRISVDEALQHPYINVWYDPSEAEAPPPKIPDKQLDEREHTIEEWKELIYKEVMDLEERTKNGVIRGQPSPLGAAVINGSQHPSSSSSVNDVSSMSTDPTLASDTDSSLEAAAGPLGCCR
Chain of CaMK1 (human) (Q14012 whole entry, looked up): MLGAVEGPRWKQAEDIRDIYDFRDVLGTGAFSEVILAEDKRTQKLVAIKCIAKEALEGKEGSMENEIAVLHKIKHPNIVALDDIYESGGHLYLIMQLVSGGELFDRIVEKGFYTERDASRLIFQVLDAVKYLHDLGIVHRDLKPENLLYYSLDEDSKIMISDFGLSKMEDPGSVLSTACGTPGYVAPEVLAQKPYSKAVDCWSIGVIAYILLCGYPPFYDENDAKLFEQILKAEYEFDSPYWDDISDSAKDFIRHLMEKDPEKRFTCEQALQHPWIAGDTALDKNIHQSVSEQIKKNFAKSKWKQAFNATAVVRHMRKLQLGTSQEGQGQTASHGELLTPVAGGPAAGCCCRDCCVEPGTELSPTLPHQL
Chain of PAK6 (human) (Q9NQU5 whole entry, looked up): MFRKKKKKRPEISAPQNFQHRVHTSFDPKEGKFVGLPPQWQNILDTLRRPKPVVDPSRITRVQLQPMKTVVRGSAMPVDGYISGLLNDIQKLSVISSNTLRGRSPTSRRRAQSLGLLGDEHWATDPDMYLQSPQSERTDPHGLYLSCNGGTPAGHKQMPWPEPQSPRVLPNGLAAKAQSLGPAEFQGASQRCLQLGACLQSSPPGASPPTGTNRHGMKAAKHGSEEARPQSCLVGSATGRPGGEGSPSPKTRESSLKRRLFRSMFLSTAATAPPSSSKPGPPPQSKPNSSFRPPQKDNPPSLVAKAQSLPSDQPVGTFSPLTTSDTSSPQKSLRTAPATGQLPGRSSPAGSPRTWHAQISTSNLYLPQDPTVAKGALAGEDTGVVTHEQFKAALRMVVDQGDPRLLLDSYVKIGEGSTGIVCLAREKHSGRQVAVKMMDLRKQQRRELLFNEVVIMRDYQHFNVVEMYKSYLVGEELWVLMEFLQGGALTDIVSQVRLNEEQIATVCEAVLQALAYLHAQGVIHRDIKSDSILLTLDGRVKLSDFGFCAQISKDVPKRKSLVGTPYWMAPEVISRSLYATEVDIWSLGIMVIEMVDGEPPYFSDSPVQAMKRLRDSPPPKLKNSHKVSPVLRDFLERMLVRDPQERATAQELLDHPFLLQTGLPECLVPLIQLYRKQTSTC
Chain of IKBKB (human) (O14920 whole entry, looked up): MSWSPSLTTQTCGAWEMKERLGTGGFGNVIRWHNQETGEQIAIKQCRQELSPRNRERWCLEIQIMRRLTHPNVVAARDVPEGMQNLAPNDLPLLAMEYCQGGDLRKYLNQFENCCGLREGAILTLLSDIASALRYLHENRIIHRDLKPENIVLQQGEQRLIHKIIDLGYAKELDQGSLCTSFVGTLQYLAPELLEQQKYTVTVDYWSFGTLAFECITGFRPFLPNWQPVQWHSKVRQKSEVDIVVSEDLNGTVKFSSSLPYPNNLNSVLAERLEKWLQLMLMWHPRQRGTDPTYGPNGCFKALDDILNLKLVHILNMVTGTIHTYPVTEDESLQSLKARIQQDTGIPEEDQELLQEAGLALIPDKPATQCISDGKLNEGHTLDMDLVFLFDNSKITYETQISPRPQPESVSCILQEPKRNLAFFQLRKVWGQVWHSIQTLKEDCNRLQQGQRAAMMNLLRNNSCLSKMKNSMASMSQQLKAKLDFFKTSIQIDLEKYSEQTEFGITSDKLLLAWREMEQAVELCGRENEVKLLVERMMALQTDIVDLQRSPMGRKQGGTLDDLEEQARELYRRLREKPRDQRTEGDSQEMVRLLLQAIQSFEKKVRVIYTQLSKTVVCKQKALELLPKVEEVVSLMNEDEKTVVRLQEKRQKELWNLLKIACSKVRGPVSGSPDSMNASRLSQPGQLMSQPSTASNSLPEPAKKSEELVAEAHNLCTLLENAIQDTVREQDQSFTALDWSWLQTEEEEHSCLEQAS
Chain of RPS6KA3 KD1 KD2 (human) (P51812 whole entry, looked up): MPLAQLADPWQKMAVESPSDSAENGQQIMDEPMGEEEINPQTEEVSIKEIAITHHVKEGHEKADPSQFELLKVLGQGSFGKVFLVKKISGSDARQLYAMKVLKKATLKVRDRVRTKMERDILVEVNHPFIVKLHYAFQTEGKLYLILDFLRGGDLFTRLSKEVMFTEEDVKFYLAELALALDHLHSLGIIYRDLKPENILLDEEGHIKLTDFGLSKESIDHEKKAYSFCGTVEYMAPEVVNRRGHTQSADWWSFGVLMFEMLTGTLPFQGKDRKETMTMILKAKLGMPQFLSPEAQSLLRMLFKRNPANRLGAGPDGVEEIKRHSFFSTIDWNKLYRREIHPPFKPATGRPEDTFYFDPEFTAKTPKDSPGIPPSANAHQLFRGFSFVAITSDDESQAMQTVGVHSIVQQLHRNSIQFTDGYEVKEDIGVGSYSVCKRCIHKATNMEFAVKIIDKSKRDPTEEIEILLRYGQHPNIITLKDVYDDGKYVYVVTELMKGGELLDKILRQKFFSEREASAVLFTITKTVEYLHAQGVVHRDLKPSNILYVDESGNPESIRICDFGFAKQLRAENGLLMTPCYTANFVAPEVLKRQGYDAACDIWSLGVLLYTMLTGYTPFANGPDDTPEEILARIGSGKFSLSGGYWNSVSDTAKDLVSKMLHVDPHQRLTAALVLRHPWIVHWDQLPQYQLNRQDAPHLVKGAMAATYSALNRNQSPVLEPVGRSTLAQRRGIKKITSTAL

residual activity ([1]; compound 0.1 µM): 90% | residual activity ([1]; compound 1.0 µM): 101% | residual activity (AURKB (human); compound 0.1 µM): 91% | residual activity (AURKB (human); compound 1.0 µM): 83% | residual activity (CDK2 CCNA2 (human); compound 0.1 µM): 86% | residual activity (CDK2 CCNA2 (human); compound 1.0 µM): 91% | residual activity (CHEK1 (human); compound 0.1 µM): 88% | residual activity (CHEK1 (human); compound 1.0 µM): 96% | residual activity (CHEK2 (human); compound 0.1 µM): 86% | residual activity (CHEK2 (human); compound 1.0 µM): 83% | residual activity (CSK (human); compound 0.1 µM): 100% | residual activity (CSK (human); compound 1.0 µM): 103% | residual activity (CaMK1 (human); compound 0.1 µM): 90% | residual activity (CaMK1 (human); compound 1.0 µM): 101% | residual activity (DYRK3 (human); compound 0.1 µM): 96% | residual activity (DYRK3 (human); compound 1.0 µM): 98% | residual activity (EPHA2 (human); compound 0.1 µM): 96% | residual activity (EPHA2 (human); compound 1.0 µM): 102% | residual activity (EPHB3 (human); compound 0.1 µM): 92% | residual activity (EPHB3 (human); compound 1.0 µM): 97% | residual activity (IKBKB (human); compound 0.1 µM): 90% | residual activity (IKBKB (human); compound 1.0 µM): 100% | residual activity (LCK (mouse); compound 0.1 µM): 88% | residual activity (LCK (mouse); compound 1.0 µM): 92% | residual activity (MAPK8 (human); compound 0.1 µM): 92% | residual activity (MAPK8 (human); compound 1.0 µM): 78% | residual activity (MST4 (human); compound 0.1 µM): 96% | residual activity (MST4 (human); compound 1.0 µM): 97% | residual activity (MYLK (human); compound 0.1 µM): 90% | residual activity (MYLK (human); compound 1.0 µM): 91% | residual activity (PAK4 (human); compound 0.1 µM): 99% | residual activity (PAK4 (human); compound 1.0 µM): 100% | residual activity (PAK6 (human); compound 0.1 µM): 97% | residual activity (PAK6 (human); compound 1.0 µM): 101% | residual activity (PKN2 (human); compound 0.1 µM): 89% | residual activity (ROCK2 (rat); compound 0.1 µM): 91% | residual activity (ROCK2 (rat); compound 1.0 µM): 93% | residual activity (RPS6KA3 KD1 KD2 (human); compound 0.1 µM): 98% | residual activity (RPS6KA3 KD1 KD2 (human); compound 1.0 µM): 79% | residual activity (SRC (human); compound 0.1 µM): 96% | residual activity (SRC (human); compound 1.0 µM): 88% | residual activity (TBK1 (human); compound 0.1 µM): 92% | residual activity (TBK1 (human); compound 1.0 µM): 96%
Compound: Cn1c(=O)c2c(ncn2C)n(C)c1=O

residual activity ([1]; compound 1.0 µM): 100% | residual activity ([1]; compound 10.0 µM): 114% | residual activity (AURKB (human); compound 1.0 µM): 96% | residual activity (AURKB (human); compound 10.0 µM): 87% | residual activity (CDK2 CCNA2 (human); compound 1.0 µM): 97% | residual activity (CDK2 CCNA2 (human); compound 10.0 µM): 91% | residual activity (CHEK1 (human); compound 1.0 µM): 109% | residual activity (CHEK1 (human); compound 10.0 µM): 115% | residual activity (CHEK2 (human); compound 1.0 µM): 84% | residual activity (CHEK2 (human); compound 10.0 µM): 98% | residual activity (CSK (human); compound 1.0 µM): 97% | residual activity (CSK (human); compound 10.0 µM): 85% | residual activity (CaMK1 (human); compound 1.0 µM): 92% | residual activity (CaMK1 (human); compound 10.0 µM): 89% | residual activity (DYRK3 (human); compound 1.0 µM): 136% | residual activity (DYRK3 (human); compound 10.0 µM): 137% | residual activity (IKBKB (human); compound 1.0 µM): 101% | residual activity (IKBKB (human); compound 10.0 µM): 101% | residual activity (LCK (mouse); compound 1.0 µM): 125% | residual activity (LCK (mouse); compound 10.0 µM): 131% | residual activity (MAP2K1 (human); compound 1.0 µM): 187% | residual activity (MAP2K1 (human); compound 10.0 µM): 191% | residual activity (MAPK10 (human); compound 1.0 µM): 101% | residual activity (MAPK10 (human); compound 10.0 µM): 102% | residual activity (MAPK8 (human); compound 1.0 µM): 99% | residual activity (MAPK8 (human); compound 10.0 µM): 97% | residual activity (MYLK (human); compound 1.0 µM): 93% | residual activity (MYLK (human); compound 10.0 µM): 87% | residual activity (PAK4 (human); compound 1.0 µM): 86% | residual activity (PAK4 (human); compound 10.0 µM): 95% | residual activity (PAK6 (human); compound 1.0 µM): 103% | residual activity (PAK6 (human); compound 10.0 µM): 102% | residual activity (PKN2 (human); compound 1.0 µM): 119% | residual activity (PKN2 (human); compound 10.0 µM): 110% | residual activity (ROCK2 (rat); compound 1.0 µM): 117% | residual activity (ROCK2 (rat); compound 10.0 µM): 106% | residual activity (RPS6KA3 KD1 KD2 (human); compound 1.0 µM): 88% | residual activity (RPS6KA3 KD1 KD2 (human); compound 10.0 µM): 99% | residual activity (SRC (human); compound 1.0 µM): 97% | residual activity (SRC (human); compound 10.0 µM): 100%
Compound: Cc1cccc(Nc2nn(C)c3ncnc(N)c23)c1

residual activity ([1]; compound 0.1 µM): 70% | residual activity ([1]; compound 1.0 µM): 34% | residual activity ([1]; compound 10.0 µM): 8% | residual activity (AURKB (human); compound 0.1 µM): 17% | residual activity (AURKB (human); compound 1.0 µM): 14% | residual activity (AURKB (human); compound 10.0 µM): 12% | residual activity (CDK2 CCNA2 (human); compound 0.1 µM): 95% | residual activity (CDK2 CCNA2 (human); compound 1.0 µM): 90% | residual activity (CDK2 CCNA2 (human); compound 10.0 µM): 81% | residual activity (CHEK1 (human); compound 0.1 µM): 56% | residual activity (CHEK1 (human); compound 1.0 µM): 13% | residual activity (CHEK1 (human); compound 10.0 µM): 4% | residual activity (CHEK2 (human); compound 0.1 µM): 57% | residual activity (CHEK2 (human); compound 1.0 µM): 27% | residual activity (CHEK2 (human); compound 10.0 µM): 10% | residual activity (CSK (human); compound 0.1 µM): 84% | residual activity (CSK (human); compound 1.0 µM): 78% | residual activity (CSK (human); compound 10.0 µM): 58% | residual activity (CaMK1 (human); compound 0.1 µM): 79% | residual activity (CaMK1 (human); compound 1.0 µM): 55% | residual activity (CaMK1 (human); compound 10.0 µM): 16% | residual activity (DYRK3 (human); compound 0.1 µM): 92% | residual activity (DYRK3 (human); compound 1.0 µM): 57% | residual activity (DYRK3 (human); compound 10.0 µM): 24% | residual activity (IKBKB (human); compound 0.1 µM): 104% | residual activity (IKBKB (human); compound 1.0 µM): 94% | residual activity (IKBKB (human); compound 10.0 µM): 80% | residual activity (LCK (mouse); compound 0.1 µM): 103% | residual activity (LCK (mouse); compound 1.0 µM): 75% | residual activity (LCK (mouse); compound 10.0 µM): 41% | residual activity (MAP2K1 (human); compound 0.1 µM): 82% | residual activity (MAP2K1 (human); compound 1.0 µM): 27% | residual activity (MAP2K1 (human); compound 10.0 µM): 16% | residual activity (MAPK10 (human); compound 0.1 µM): 90% | residual activity (MAPK10 (human); compound 1.0 µM): 97% | residual activity (MAPK10 (human); compound 10.0 µM): 87% | residual activity (MAPK8 (human); compound 0.1 µM): 103% | residual activity (MAPK8 (human); compound 1.0 µM): 99% | residual activity (MAPK8 (human); compound 10.0 µM): 60% | residual activity (MYLK (human); compound 0.1 µM): 15% | residual activity (MYLK (human); compound 1.0 µM): 6% | residual activity (MYLK (human); compound 10.0 µM): 3% | residual activity (PAK4 (human); compound 0.1 µM): 99% | residual activity (PAK4 (human); compound 1.0 µM): 82% | residual activity (PAK4 (human); compound 10.0 µM): 66% | residual activity (PAK6 (human); compound 0.1 µM): 107% | residual activity (PAK6 (human); compound 1.0 µM): 82% | residual activity (PAK6 (human); compound 10.0 µM): 71% | residual activity (PKN2 (human); compound 0.1 µM): 63% | residual activity (PKN2 (human); compound 1.0 µM): 13% | residual activity (PKN2 (human); compound 10.0 µM): 4% | residual activity (ROCK2 (rat); compound 0.1 µM): 118% | residual activity (ROCK2 (rat); compound 1.0 µM): 115% | residual activity (ROCK2 (rat); compound 10.0 µM): 112% | residual activity (RPS6KA3 KD1 KD2 (human); compound 0.1 µM): 3% | residual activity (RPS6KA3 KD1 KD2 (human); compound 1.0 µM): 0% | residual activity (RPS6KA3 KD1 KD2 (human); compound 10.0 µM): 0% | residual activity (SRC (human); compound 0.1 µM): 104% | residual activity (SRC (human); compound 1.0 µM): 95% | residual activity (SRC (human); compound 10.0 µM): 63%
Compound: COc1ccc2c(c1)c1c3c(c4c5ccccc5n(C)c4c1n2CC(O)CN(C)C)C(=O)NC3=O (stereo not drawn)
